# pKd: −log10 of the molar value.
# Target: α7 nAChR subtype (Rattus norvegicus, UniProt Q05941)
# Assay type: binding
# Sequence of α7 nAChR subtype (Q05941 23-502 limits assumed): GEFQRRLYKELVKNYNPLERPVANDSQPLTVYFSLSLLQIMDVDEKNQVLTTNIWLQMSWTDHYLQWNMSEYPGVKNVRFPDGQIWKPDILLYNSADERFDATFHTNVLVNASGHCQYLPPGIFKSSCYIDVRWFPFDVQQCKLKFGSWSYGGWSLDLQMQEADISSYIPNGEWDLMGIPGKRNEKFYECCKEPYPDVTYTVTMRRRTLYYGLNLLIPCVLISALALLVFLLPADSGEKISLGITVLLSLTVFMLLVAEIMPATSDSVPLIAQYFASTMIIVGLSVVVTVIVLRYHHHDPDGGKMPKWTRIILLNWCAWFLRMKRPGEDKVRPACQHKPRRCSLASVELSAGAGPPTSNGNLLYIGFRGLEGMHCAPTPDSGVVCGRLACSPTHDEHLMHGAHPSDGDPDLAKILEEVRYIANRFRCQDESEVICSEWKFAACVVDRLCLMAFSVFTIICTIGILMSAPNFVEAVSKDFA
substance,measurement,value
^125I-α-Bungarotoxin [^125I-α-BTX],pKd,8.78

# Reference: patent publication US6642246B1 (priority 1999, dated 2003)
